Results from ChEMBL document CHEMBL5113401, “Novel 1,3,4-oxadiazole chalcogen analogues: Synthesis and cytotoxic activity” (Eur J Med Chem, 2022).
Calls of active or inactive are those of the source. The rule behind the calls is not given here.

Key:
HeLa [1] = test: Induction of cell cycle arrest in human HeLa cells assessed as accumulation of cells at S phase at 1 uM incubated for 6 hrs by FACS flow cytometry analysis (reference value: 17.41 +/- 0.96 %); type: functional
HeLa [2] = test: Induction of cell cycle arrest in human HeLa cells assessed as accumulation of cells at S phase at 1 uM incubated for 18 hrs by FACS flow cytometry analysis (reference value: 17.41 +/- 1.16 %); type: functional
HeLa [3] = test: Induction of cell cycle arrest in human HeLa cells assessed as accumulation of cells at G1 phase at 1 uM incubated for 18 hrs by FACS flow cytometry analysis (reference value: 69.94 +/- 1.25 %); type: functional
PC-3 [4] = test: Induction of cell cycle arrest in human PC-3 cells assessed as accumulation of cells at G1 phase at 1 uM incubated for 12 hrs by FACS flow cytometry analysis (reference value: 44.2 +/- 2.01 %); type: functional
HeLa [5] = test: Antiproliferative activity against human HeLa cells assessed as inhibition of cell growth incubated for 48 hrs by XTT assay; type: functional, cell-based
PC-3 [6] = test: Inhibition of colony formation in human PC-3 cells at IC50 incubated for 2 weeks with culture medium replacement for every 3 days by crystal violet staining based analysis; type: functional, cell-based
Tubulin (Homo sapiens) [7] = target: T1, Tubulin (Homo sapiens) (UniProt P68371+Q9H4B7+P0DPH7+P68366+Q13509+Q71U36+P04350+Q3ZCM7+P07437+P68363+Q9BQE3+Q6PEY2+Q13885+Q9BVA1+Q9BUF5); test: Inhibition of tubulin polymerization in human HeLa cells assessed as abnormal microtubule network at 0.5 uM incubated for 6 hrs by DAPI staining based fluorescence microscopic analysis; type: cell-based
PC-3 [8] = test: Induction of cell cycle arrest in human PC-3 cells assessed as accumulation of cells at S phase at 1 uM incubated for 6 hrs by FACS flow cytometry analysis (reference value: 35.06 +/- 1.85 %); type: functional
Tubulin (Homo sapiens) [9] = target: T1, Tubulin (Homo sapiens); test: Inhibition of tubulin polymerization in human HeLa cells assessed as aberrations in mitotic spindle and nucleus at 0.5 uM incubated for 6 hrs by DAPI staining based fluorescence microscopic analysis; type: cell-based
PC-3 [10] = test: Induction of cell cycle arrest in human PC-3 cells assessed as accumulation of cells at G1 phase at 1 uM incubated for 6 hrs by FACS flow cytometry analysis (reference value: 44.2 +/- 2.21 %); type: functional
PC-3 [11] = test: Antiproliferative activity against human PC-3 cells assessed as inhibition of cell growth incubated for 48 hrs by XTT assay; type: functional, cell-based; conditions: PC-3, 48 h
HFF-1 = test: Cytotoxicity against HFF-1 cells assessed as reduction in cell viability at 1 to 2 uM incubated for 48 hrs by XTT assay; type: toxicity, cell-based; conditions: human, hff-1, 48 h, dose 1-2 µM
HeLa [12] = test: Induction of apoptosis in human HeLa cells assessed as late apoptotic cells at 1 uM incubated for 24 hrs by Annexin V-FITC/7-AAD staining based flow cytometric analysis (reference value: 11.1 +/- 0.778 %); type: functional
PC-3 [13] = test: Induction of cell cycle arrest in human PC-3 cells assessed as accumulation of cells at S phase at 1 uM incubated for 12 hrs by FACS flow cytometry analysis (reference value: 35.06 +/- 1.36 %); type: functional
HeLa [14] = test: Induction of cell cycle arrest in human HeLa cells assessed as accumulation of cells at G2/M phase at 1 uM incubated for 6 hrs by FACS flow cytometry analysis (reference value: 12.66 +/- 0.88 %); type: functional
PC-3 [15] = test: Induction of cell cycle arrest in human PC-3 cells assessed as accumulation of cells at G2/M phase at 1 uM incubated for 6 hrs by FACS flow cytometry analysis (reference value: 20.74 +/- 1.93 %); type: functional
HeLa [16] = test: Inhibition of colony formation in human HeLa cells at IC50 incubated for 2 weeks with culture medium replacement for every 3 days by crystal violet staining based analysis; type: functional, cell-based
HeLa [17] = test: Induction of apoptosis in human HeLa cells assessed as viable cells at 1 uM incubated for 24 hrs by Annexin V-FITC/7-AAD staining based flow cytometric analysis (reference value: 85.6 +/- 1.061%); type: functional; conditions: read-out: Activity
HeLa [18] = test: Induction of apoptosis in human HeLa cells assessed as early apoptotic cells at 1 uM incubated for 24 hrs by Annexin V-FITC/7-AAD staining based flow cytometric analysis (reference value: 2.7 +/- 0.424 %); type: functional
PC-3 [19] = test: Induction of cell cycle arrest in human PC-3 cells assessed as accumulation of cells at G2/M phase at 1 uM incubated for 12 hrs by FACS flow cytometry analysis (reference value: 20.74 +/- 1.95 %); type: functional
MCF7 = test: Antiproliferative activity against human MCF7 cells assessed as inhibition of cell growth incubated for 48 hrs by XTT assay; type: functional, cell-based; conditions: MCF7, 48 h
HeLa [20] = test: Induction of apoptosis in human HeLa cells assessed as dead cells at 1 uM incubated for 24 hrs by Annexin V-FITC/7-AAD staining based flow cytometric analysis (reference value: 0.6 +/- 0.707 %); type: functional
Tubulin (Homo sapiens) [21] = target: T1, Tubulin (Homo sapiens); test: Inhibition of tubulin polymerization in human HeLa cells assessed as irregular cell morphology at 0.5 uM incubated for 6 hrs by DAPI staining based fluorescence microscopic analysis
NB1 = test: Cytotoxicity against human NB1 cells immortalized with hTERT plasmid assessed as reduction in cell viability at 1 to 2 uM incubated for 48 hrs by XTT assay; type: toxicity, cell-based; conditions: nb1, 48 h, dose 1-2 µM
HeLa [22] = test: Induction of cell cycle arrest in human HeLa cells assessed as accumulation of cells at G2/M phase at 1 uM incubated for 18 hrs by FACS flow cytometry analysis (reference value: 12.66 +/- 0.92 %); type: functional
HeLa [23] = test: Induction of cell cycle arrest in human HeLa cells assessed as accumulation of cells at G1 phase at 1 uM incubated for 6 hrs by FACS flow cytometry analysis (reference value: 69.94 +/- 1.71 %); type: functional
HeLa [24] = test: Induction of cell cycle arrest in human HeLa cells assessed as accumulation of cells at S phase at 1 uM incubated for 12 hrs by FACS flow cytometry analysis (reference value: 17.41 %); type: functional
PC-3 [25] = test: Induction of cell cycle arrest in human PC-3 cells assessed as accumulation of cells at G2/M phase at 1 uM incubated for 18 hrs by FACS flow cytometry analysis (reference value: 20.74 %); type: functional
PC-3 [26] = test: Induction of cell cycle arrest in human PC-3 cells assessed as accumulation of cells at S phase at 1 uM incubated for 18 hrs by FACS flow cytometry analysis (reference value: 35.06 %); type: functional
PC-3 [27] = test: Induction of cell cycle arrest in human PC-3 cells assessed as accumulation of cells at G1 phase at 1 uM incubated for 18 hrs by FACS flow cytometry analysis (reference value: 44.2 %); type: functional
HeLa [28] = test: Induction of cell cycle arrest in human HeLa cells assessed as accumulation of cells at G1 phase at 1 uM incubated for 12 hrs by FACS flow cytometry analysis (reference value: 69.94 %); type: functional
HeLa [29] = test: Induction of cell cycle arrest in human HeLa cells assessed as accumulation of cells at G2/M phase at 1 uM incubated for 12 hrs by FACS flow cytometry analysis (reference value: 12.66 %); type: functional

Row | SMILES | Activity (HeLa [1]) | Activity (HeLa [2]) | Activity (HeLa [3]) | Activity (PC-3 [4]) | IC50 (HeLa [5]) | inhibition (PC-3 [6]) | inhibition (Tubulin (Homo sapiens) [7]) | Activity (PC-3 [8]) | inhibition (Tubulin (Homo sapiens) [9]) | Activity (PC-3 [10]) | IC50 (PC-3 [11]) | Activity (HFF-1) | Activity (HeLa [12]) | Activity (PC-3 [13]) | Activity (HeLa [14]) | Activity (PC-3 [15]) | inhibition (HeLa [16]) | viability at 1 µM (HeLa [17]) | Activity (HeLa [18]) | Activity (PC-3 [19]) | other results
1 | Cc1[nH]c2c(c1-c1nnc(-c3ccccc3Cl)[se]1)Cc1ccccc1-2 | 35.29% | 12.5% | 2.03% | 0.64% | 5 nM | Active | Active | 55.33% | Active | 13.15% | 67 nM | Non-Toxic | 58.2% | 5.7% | 23.09% | 31.52% | Active | 24.6% | 11.9% | 93.66% | IC50 (MCF7): 91 nM; Activity (HeLa [20]): 5.3%; inhibition (Tubulin (Homo sapiens) [21]): Active; Activity (NB1): Non-Toxic; Activity (HeLa [22]): 85.47%; Activity (HeLa [23]): 41.62%
2 | Cc1[nH]c2c(c1-c1nnc(-c3ccccc3)o1)Cc1ccccc1-2 | 63.32% | 8.43% | 1.48% | 0% | 68 nM | Active | Active | 53.05% | Active | 8.34% | 1660 nM | Non-Toxic | 28.5% | 18.48% | 20.86% | 38.61% | Active | 62.2% | 2.9% | 81.52% | Activity (HeLa [24]): 55.05%; Activity (PC-3 [25]): 92.97%; Activity (PC-3 [26]): 5.86%; Activity (PC-3 [27]): 1.71%; Activity (HeLa [28]): 3.54%; Activity (HeLa [29]): 41.41%; IC50 (MCF7): 1720 nM; Activity (HeLa [20]): 6.4%; inhibition (Tubulin (Homo sapiens) [21]): Active; Activity (NB1): Non-Toxic; Activity (HeLa [22]): 90.18%; Activity (HeLa [23]): 16.81%
3 | Cc1[nH]c2c(c1-c1nnc(-c3ccccc3)[se]1)Cc1ccccc1-2 | 70.25% | 10.36% | 1.06% | 1.01% | 9 nM | Active | Active | 56.26% | Active | 8.76% | 72 nM | Non-Toxic | 19.7% | 6.68% | 5.51% | 34.99% | Active | 68% | 8.9% | 92.31% | IC50 (MCF7): 176 nM; Activity (HeLa [20]): 3.4%; inhibition (Tubulin (Homo sapiens) [21]): Active; Activity (NB1): Non-Toxic; Activity (HeLa [22]): 88.58%; Activity (HeLa [23]): 24.24%
